Assay results reported in patent publication US10617695B2, “Ophthalmic compositions containing alcaftadine” (Vistakon Pharmaceuticals, LLC, priority 2006, dated 2020).
“Also recorded” adds a separate entry of the source.

Legend:
[1] = test system: murine model of allergic conjunctivitis; assay: Eosinophil and neutrophil recruitment 24 hours post-CAC in murine model of allergic conjunctivitis, late phase; type: in vivo, mice; conditions: alcaftadine 2.5 mg/ml, 5 μL topical at 1 and 2 hours pre-challenge
Experimental: (§1) Alcaftadine ophthalmic solution was evaluated to determine if topical treatment could reduce early phase and late phase allergic inflammation in a murine model of allergic conjunctivitis. Evans Blue Dye Leakage was used to assess the impact on vascular permeability during the early phase inflammatory response Conjunctiva was taken at 24 hours, stained, and assessed for presence of neutrophil and eosinophil infiltration to evaluate late phase anti-inflammatory activity.
(§2) All mice were sensitized with short ragweed (SRW) in aluminum hydroxide via intraperitoneal administration (Day 0, 7, and 14) and eye drop instillation (Day 8 and 15). On Day 20, mice were again sensitized with eye drops of SRW.
(§3) On Day 27, two topical administrations of the clinical dose of alcaftadine 2.5 mg/ml or vehicle were instilled at 1 and 2 hours pre-challenge. Alcaftadine and vehicle were administered topically at a 5 μL saturating dose as treatment arms based on a randomization code. […]
(§4) Vascular leak was determined by means of Evans Blue Dye Extravasation following allergen challenge for N=6 animals except the alcaftadine treatment arm, where N=4 animals were sacrificed and tested (two animals died during the procedure). […] The numbers of eosinophils and neutrophils were determined both by light microscopy of Giemsa or H&E stained sections or by immunohistochemistry using cell specific monoclonal antibodies. […]

[2] = test system: SWR/J mice sensitized with short ragweed allergen; assay: Topical alcaftadine in murine model of active anaphylaxis (allergic conjunctivitis, short ragweed challenge); type: in vivo, mouse; conditions: alcaftadine 0.0625% ophthalmic solution, 15 minutes after allergen challenge
Experimental: Male SWR/J mice (The Jackson Laboratory, Bar Harbor, Me.), aged 5-7 weeks and weighing between 12.55 and 17.73 grams, were sensitized with a 100 μl dose of a suspension of 50 μg short ragweed allergen (Greer Labs, Inc., Lenoir, N.C.) and 1 mg of aluminum hydroxide (Fisher Scientific, Pittsburgh, Pa.) by intraperitoneal injection at two weeks and prior to treatment and challenge. […] The mice were then dosed topically in the eye with an alcaftadine 0.0625% ophthalmic solution, positive control (ophthalmic solution comprising combination of ketotifen 0.05% and pheniramine 0.5%), or placebo prior to an ocular challenge with 1.5 mg short ragweed allergen in phosphate buffered saline. Fifteen (15) minutes after allergen challenge, mice were evaluated for clinical signs of allergic conjunctivitis by scoring for conjunctival redness, chemosis, tearing, and lid edema. Severity of clinical signs was scored by a trained technician using a standardized 0-2 scale.

[3] = test system: murine model of allergic conjunctivitis; assay: Vascular leak (Evans Blue Dye Extravasation) in murine model of allergic conjunctivitis, early phase; type: in vivo, mice; conditions: alcaftadine 2.5 mg/ml, 5 μL topical at 1 and 2 hours pre-challenge; p<0.05
Experimental: as §1, §2, §3, §4

[4] = Chemical stability of alcaftadine solution in ethylene oxide sterilized LDPE bottles; type: physicochemical
Experimental: Both non-sterilized Rexam and Bunder Glas bottles were sterilized using ethylene oxide. Stability studies were initiated and ethylene oxide levels determined to be <1 ppm (under ambient conditions) using a water extraction test method (ANSI/AAMI/ISO: 10993-7) by AppTec (Marietta, Ga.).
The 2.5 mg/ml alcaftadine solution was used in this study.
The chemical stability results for alcaftadine stored in ethylene oxide sterilized Rexam and Bunder Glas bottles are summarized in Table 4.

[5] = Chemical stability of alcaftadine solution in non-sterilized or gamma irradiated LDPE bottles and glass vials (HPLC); type: physicochemical; conditions: Glass Vials; 5° C.; 6 days
[6] = Systemic (plasma) levels of alcaftadine in patients; type: in vivo, human; conditions: for Mean Cmax: plasma, 0.25% ophthalmic solution bilaterally
Experimental: Patients were bilaterally dosed with 0.25% ophthalmic solutions of alcaftadine for seven days. The plasma levels of those patients was assessed pre-dose, and 0.25, 0.5, 1, 1.5, 2, 3, 4, 6, 8, 12, and 18 hour post medication instillation on days one and seven. Plasma concentrations of Alcaftadine reached Cmax rapidly and declined to below the lower limit of quantification (0.01 ng/mL) by 3 hours post dosing.

ZO-1 = assay: Integrity of conjunctival epithelium after conjunctival allergen challenge: ZO-1 expression (confocal microscopy); type: in vivo, mice
Experimental: To investigate the ability of alcaftadine to maintain the integrity of conjunctival epithelium, changes in the expression of the tight junction proteins ZO-1 and E-cadherin (an induction for E-cadherin and qualitative change-from focal to diffuse for ZO-1) were evaluated following specific conjunctival allergen challenge. These changes are associated with an increased permeability of the conjunctival and other epithelial tissues. This in vivo experiment examined what effect alcaftadine (topical administration 1 and 2 hours pre-challenge) had on the modulation of these proteins.
Mice were sensitized with short ragweed (SRW) in aluminum hydroxide via intraperitoneal administration (Day 0, 7, and 15) and eye drop instillation (Day 8 and 15). On Day 20, mice were further sensitized with eye drops containing only SRW. On Day 27, the mice were treated topically with either 5 μL alcaftadine or vehicle at 1 and 2 hours prior to challenge. SRW was instilled topically to both eyes. The expression of these proteins in naive eyes were also monitored. Changes in the expression of the tight junction proteins ZO-1 and E-cadherin were observed 1-hour post conjunctival allergen challenge with SRW. The proteins were detected using FITC-conjugated monoclonal antibodies specific for ZO-1 and E-cadherin and were visualized by confocal microscopy (Ziess). […]

[7] = Bunder Glas bottles, Ethylene Oxide, 5 days at 50° C.
[8] = Bunder Glas bottles, Ethylene Oxide, 14 days at 50° C.
[9] = Rexam bottles, Ethylene Oxide, 5 days at 50° C.
[10] = Rexam bottles, Ethylene Oxide, 14 days at 50° C.

- N-oxide levels in ethylene oxide sterilized Bunder Glas bottles versus gamma irradiated bottles ([4]; 14 days of storage at 50° C. under ambient light conditions): significantly lower N-oxide levels
- Alcaftadine [4, 7]: 2.46 mg/mL
- N-Oxide [4, 7]: 0.052%
- Alcaftadine [4, 8]: 2.48 mg/mL
- N-Oxide [4, 8]: 0.074%
- Alcaftadine ([4]; Glass Vials, 5 days at 50° C.): 2.48 mg/mL
- N-Oxide ([4]; Glass Vials, 5 days at 50° C.): 0.022%
- Alcaftadine ([4]; Glass Vials, 14 days at 50° C.): 2.51 mg/mL
- N-Oxide ([4]; Glass Vials, 14 days at 50° C.): 0.028%
- Alcaftadine [4, 9]: 2.50 mg/mL
- N-Oxide [4, 9]: 0.018%
- Alcaftadine [4, 10]: 2.58 mg/mL
- N-Oxide [4, 10]: 0.025%
- Alcaftadine [5]: 2.52 mg/mL
- Oxide [5]: 0.008%
- maximum plasma concentrations ([6]; all subjects): less than 0.12 ng/mL
- Mean Cmax ([6]; Day 1): 0.051 ng/mL
- Mean Cmax ([6]; Day 7): 0.060 ng/mL
- time by which plasma concentrations declined to below the lower limit of quantification ([6]; post dosing, lower limit of quantification 0.01 ng/mL): ≤ 3 h
Structure (SMILES): CN1CCC(=C2c3ccccc3CCn3c(C=O)cnc32)CC1 [Alcaftadine, 6,11-dihydro-11-(1-methyl-4-piperidinylidene)-5H-imidazo[2,1-b][3]benzazepine-3-carboxaldehyde]
- eosinophil or neutrophil recruitment in the late phase response [1]: did not prevent eosinophil or neutrophil recruitment
- eosinophil or neutrophil recruitment in the late phase response ([1]; listed as alcaftadine): does not appear to inhibit eosinophil or neutrophil recruitment
- preventing tearing [2]: as effective as the positive control and more effective than placebo
- preventing itching, redness, chemosis and lid edema ([2]; positive control ketotifen 0.05% and pheniramine 0.5%): more effective than the positive control
- vascular leak compared to vehicle [3]: successfully preventing vascular leakage; also recorded: did significantly inhibit vascular leak
- ZO-1 staining, alcaftadine treatment versus naive (negative control) (ZO-1; 5 μL topical at 1 and 2 hours prior to challenge, 1-hour post challenge): no or minimal difference
- integrity of conjunctival epithelial tight junctions (focal ZO-1 expression) (ZO-1; following specific conjunctival allergen challenge): maintains the integrity of conjunctival epithelial tight junctions
